Results reported in patent US10047036B2, “Method for the synthesis of hydroxy-triglycerides and uses thereof for the prevention and treatment of diseases” (UNIVERSITAT DE LES ILLES BALEARS, priority 2014, dated 2018).
pIC50: −log10 of the molar value.

Assays:
cholesterol in plasma = test: plasma cholesterol in SHR rats; type: in vivo; conditions: p.o.; for Chol, levels of total cholesterol in plasma: 6 days, 400 mg/kg
Text: Metabolic and cardiovascular pathologies are closely related. The overfeeding which characterises our society not only gives rise to problems of obesity and excess weight. It is also linked to the appearance of diabetes, dyslipidaemia, hypertension, strokes, arteriosclerosis, ictus, etc. All of these pathologies increase the risk of premature death and can even cause death. In this sense, certain natural oils show a certain efficacy against this type of pathologies, but their power is limited. In contrast, the molecules of the invention have an important effect against the development of this type of pathologies. To be able to study the effects of the compounds of the invention for the prevention and treatment of metabolic and cardiovascular pathologies, hypertensive rats were used (SHR strain, spontaneously hypertensive rats). These rats present obesity, high blood pressure, dyslipidaemia (hypercholesterolemia and hypertriglyceridemia), diabetes, metabolic syndrome and other related health problems. Also, SHR rats were used to research the efficacy of the hydroxy-triglycerides for the prevention and treatment of dyslipidaemias. On the one hand, treatments with different oral doses and durations gave rise to reductions in the plasma levels of total cholesterol and its fractions in test animals (Tables 5 and 6). These reductions were marked and significant, returning the cholesterol in plasma values to those found in animals without metabolic/cardiovascular disorders. […] [table] [table]

[1] = system: MRC5 (non-tumour) human fibroblasts; test: growth inhibition of normal non-tumour cells, 72 h incubation; type: cell-based; conditions: 72 hours of incubation
Procedure: On the one hand, human cells of different types of cancer were used. The cells were incubated at 37° C. and 5% of CO2 in air, in culture medium RPMI1640 or DMEM with bovine foetal serum (10%) and other supplements and in the presence or absence of the triglycerides of the present invention at different concentrations during 72 hours. It was possible to observe that the hydroxy-triglycerides of the invention have a high efficacy against the growth of human tumour cells, but not against the growth of normal non-tumour cells (human fibroblasts, MRC5).

[2] = system: transgenic rat with 5 mutations of human familial Alzheimer's (Tag); test: radial maze test in transgenic rats with Alzheimer's; type: in vivo; conditions: for Errors made in the radial maze: Tag rats, 50 mg/kg p.o. daily, 100% = healthy animals without Alzheimer's
Procedure: In order to study Alzheimer's disease a transgenic rat model was used with 5 mutations which appear in human familiar Alzheimer's (symbolised as Tag, and abbreviated Tg). This model of Alzheimer's is very severe, and the animals already show a cognitive deficit at 2 months of age. To carry out this experiment, both young rats (of 3 months of age) and aged rats (of 10 months of age) were used and treated for 3 months with the hydroxy-triglycerides of the present invention (50 mg/kg day, p.o.). The rats were subjected to a low-calorie diet so that they would be hungry and carry out a test in a radial maze, in which food was placed in 4 of the device's 8 arms (asymmetrically), quantifying the number of errors committed until the exercise was completed. […]
The control animals were treated with vehicle (saline) and the rest with 50 mg/kg (p.o.) daily of the indicated compound.

plasma glucose = plasma glucose in spontaneously hypertensive rats; type: in vivo; conditions: SHR rats, 9 days, 400 mg/kg every 12 hours, p.o.; fasting 12 hours
Text: Metabolic and cardiovascular pathologies are closely related. The overfeeding which characterises our society not only gives rise to problems of obesity and excess weight. It is also linked to the appearance of diabetes, dyslipidaemia, hypertension, strokes, arteriosclerosis, ictus, etc. All of these pathologies increase the risk of premature death and can even cause death. In this sense, certain natural oils show a certain efficacy against this type of pathologies, but their power is limited. In contrast, the molecules of the invention have an important effect against the development of this type of pathologies. To be able to study the effects of the compounds of the invention for the prevention and treatment of metabolic and cardiovascular pathologies, hypertensive rats were used (SHR strain, spontaneously hypertensive rats). These rats present obesity, high blood pressure, dyslipidaemia (hypercholesterolemia and hypertriglyceridemia), diabetes, metabolic syndrome and other related health problems. At the same time, research was conducted into the efficacy of the hydroxy-triglycerides for controlling the high levels of glycaemia in SHR rats, and therefore, preventing or curing diabetes. Hypertensive rats (SHR) with an approximate weight of 300 grams were treated with TGM1 during 9 days (400 mg/kg, every 12 h, p.o.). Plasma glucose was measured before starting the treatment (basal) and 9 days later. In all cases, the plasma measurements were conducted in rats kept fasting during 12 hours. In this way, after 9 days of treatment, the levels of glucose in blood were reduced by up to more than 25% for the molecules of the invention (FIG. 5 and Table 4). [table]

[3] = membrane transition temperatures by X-ray diffraction; type: physicochemical; conditions: POPE with 1 mol % of TGM
Text: As can be appreciated, the presence of TGM induce a very important reduction in the lateral surface tension which is evident from the reduction in the value of the lamellar-to-hexagonal (L-a-HII) transition temperature, which in turn indicates an increase in non-lamellar propensity: Table 12). This effect has an important repercussion on the functionality of the membrane, as this structure allows for the anchoring of certain membrane proteins necessary for cell signalling. For this reason, it can be said that the TGMs have a positive effect on cell signalling because they allow the propagation of cell signals which are lost in association with a wide variety of diseases. This effect shown on the structure of the membrane explains in part why certain oils, such as olive oil or fish oil, have important beneficial properties for the prevention of various diseases, such as cancer, cardiovascular/metabolic diseases and neurological/neurodegenerative diseases. FIG. 6 and Table 12 show clearly how all the TGMs have a similar effect, although with minor nuances in each case. The effect on the solid-liquid transition (Tm) and the lamellar to hexagonal transition (TH) was measured in membranes of palmitoyl-oleoyl phosphatidylethanolamine (POPE) by means of X-ray diffraction in the absence of (POPE Control) or presence of 1 mol % of each one of the indicated TGMs.

SMILES | Chol, levels of total cholesterol in plasma (cholesterol in plasma) | pIC50 [1] | Errors made in the radial maze [2] | Δ G, change in glucose levels in plasma (plasma glucose) | TH, lamellar to hexagonal transition temperature [3] | Tm, solid-liquid transition temperature [3] | HDL in plasma (cholesterol in plasma; 14 days, 600 mg/kg, 12 h) | LDL in plasma (cholesterol in plasma; 14 days, 600 mg/kg, 12 h) | Total cholesterol in plasma (cholesterol in plasma; 14 days, 600 mg/kg, 12 h) | number of errors in the radial maze (FIG. 7A) ([2]; young and aged Tg rats, 3 months, 50 mg/kg day p.o., errors of first week of tests = 100%) | pIC50 ([1]; Homo sapiens, MRC5)
CCCCCC=CCC=CCC=CCC=CCCC(O)C(=O)OCC(COC(=O)C(O)CCC=CCC=CCC=CCC=CCCCCC)OC(=O)C(O)CCC=CCC=CCC=CCC=CCCCCC (centres unmarked) [TGM4, 1,2,3-tri(2′-hydroxy-eicosa-5′,8′,11′,14′-tetraenoyl)glycerol] | 72.7 ± 2 mg/dL | < 3.30 | 101.0% | -5 mg/dL | 64.6 ± 0.8 °C | 23.2 ± 0.2 °C |  |  |  |  | 
CCCCCC=CCC=CCCCCCCC(O)C(=O)OCC(COC(=O)C(O)CCCCCCC=CCC=CCCCCC)OC(=O)C(O)CCCCCCC=CCC=CCCCCC (centres unmarked) [TGM2, 1,2,3-tri(2′-hydroxy-octadec-9′,12′-dienoyl)glycerol] | 51.7 ± 2 mg/dL | < 3.30 | 143.2% | -7 mg/dL | 62.0 ± 1.1 °C | 23.6 ± 0.3 °C |  |  |  |  | 
CCC=CCC=CCC=CCC=CCC=CCCC(O)C(=O)OCC(COC(=O)C(O)CCC=CCC=CCC=CCC=CCC=CCC)OC(=O)C(O)CCC=CCC=CCC=CCC=CCC=CCC (centres unmarked) [TGM5, 1,2,3-tri(2′-hydroxy-eicosa-5′,8′,11′,14′,17′-pentaenoyl)glycerol] | 58.4 ± 3 mg/dL | < 3.30 | 121.3% | -13 mg/dL |  |  |  |  |  |  | 
CCCCCCCCC=CCCCCCCC(O)C(=O)OCC(COC(=O)C(O)CCCCCCC=CCCCCCCCC)OC(=O)C(O)CCCCCCC=CCCCCCCCC (centres unmarked) [TGM1, 1,2,3-tri(2′-hydroxy-octadec-9′-enoyl)glycerol] | 55.5 ± 2 mg/dL | < 3.30 | 128.9% | -20 mg/dL | 66.0 ± 0.9 °C | 23.8 ± 0.3 °C | 33.44 ± 2.251 mmHgmg/dl | 3.644 ± 0.3244 mmHgmg/dl | 49.11 ± 3.084 mmHgmg/dl |  | 
CCCCCC=CCC=CCC=CCCCC(O)C(=O)OCC(COC(=O)C(O)CCCC=CCC=CCC=CCCCCC)OC(=O)C(O)CCCC=CCC=CCC=CCCCCC (centres unmarked) [TGM3G, 1,2,3-tri(2′-hydroxy-octadec-6′,9′,12′-trienoyl)glycerol] | 65.1 ± 4 mg/dL | < 3.30 | 156.8% | -9 mg/dL | 63.6 ± 1.1 °C | 23.3 ± 0.3 °C |  |  |  |  | 
CCC=CCC=CCC=CCCCCCCC(O)C(=O)OCC(COC(=O)C(O)CCCCCCC=CCC=CCC=CCC)OC(=O)C(O)CCCCCCC=CCC=CCC=CCC (centres unmarked) [TGM3A, 1,2,3-tri(2′-hydroxy-octadec-9′,12′,15′-trienoyl)glycerol] | 49.8 ± 2 mg/dL | < 3.30 | 134.5% | -14 mg/dL | 63.0 ± 1.1 °C | 23.4 ± 0.2 °C |  |  |  |  | 
CCC=CCC=CCC=CCC=CCC=CCC=CCC(O)C(=O)OCC(COC(=O)C(O)CC=CCC=CCC=CCC=CCC=CCC=CCC)OC(=O)C(O)CC=CCC=CCC=CCC=CCC=CCC=CCC (centres unmarked) [TGM6, 1,2,3-tri(2′-hydroxy-docosa-4′,7′,10′,13′,16′,19′-hexanoyl)glycerol] | 48.9 ± 3 mg/dL | < 3.30 | 84.7% | -16 mg/dL | 64.9 ± 0.9 °C | 23.3 ± 0.2 °C |  |  |  | below 100% | 
CCCCCC(O)C(=O)OCC(COC(=O)C(O)CCCCC)OC(=O)C(O)CCCCC (centres unmarked) [TGM0, 1,2,3-tri(2′-hydroxyheptanoyl)glycerol] | 62.2 ± 3 mg/dL |  | 153.1% | -4 mg/dL | 68.3 ± 0.6 °C | 22.7 ± 0.2 °C |  |  |  |  | < 3.30
